Assay in all cases: DTP human tumour cell line panel, 48 h
The test system of test [1] is HCT-15 colon.
For test [2], the system named is MDA-MB-231 breast.
The test system of test [3] is PC-3 prostate.
For test [4], the system named is MOLT-4 leukemia.
For test [5], the system named is CCRF-CEM leukemia.
The subject of test [6] is BT-549 breast.
For test [7], the system named is HL-60(TB) leukemia.
The subject of test [8] is K-562 leukemia.
In test [9] the test system is HCC-2998 colon.
Test [10] has as its system SNB-19 CNS.

Several values for one entry are separate records, joined by “and”; a condition that tells them apart may be missing. Equal values may be shown once.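 Results reflect a 48-hour exposure of cells in 96-well plates to compound at five concentrations. Abbreviation: GI50, concentration required for 50% inhibition of growth. TGI: concentration producing complete growth inhibition.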 A value given as a limit tells only on which side of the number the result lay.

Usually GI50 stands for the concentration at which growth is held to half of that of the control. A word on the TGI: it is the concentration giving total growth inhibition. Regarding `COc1cc(N=Nc2cc(Cc3ccc(N(C)C)cc3)c(N)cc2N(C)C)c2ncccc2c1`, the GI50 in [1] is 0.195 µM; in test [2], 0.512 µM; in test [3], 0.293 µM; in test [4], 0.185 µM; in [5] it was 0.126 µM; in test [6], 1.41 µM. For the same compound, the GI50 is 0.267 µM in test [7], 0.139 µM in test [8], 1.16 µM in test [9] and 0.577 µM in [10]. In addition, the TGI in test [1] came out at 1.99 µM; in test [2], 2.17 µM; in test [3], 3.03 µM; in test [4] it was 1.22 µM; in test [5], 2.29 µM; in test [6] it was 5.63 µM. Also, the TGI was 1.36 µM in test [7], 1.74 µM in test [8], 2.66 µM in [9] and 3.71 µM in test [10].
For `COc1cccc(C2CC(=O)Nc3c2c(C)nn3-c2nc3ccccc3[nH]2)c1OC` (centres undefined), the GI50 was 3.45 µM in [1]; 2.92 µM in test [2]; 4.44 µM in test [3]; 0.0531 µM in test [4]; 1.86 µM in test [5]; 5.52 µM in test [6]. In addition, the GI50 was 2.97 µM in test [7], 3.89 µM in test [8], 18.1 µM in [9] and 4.07 µM in test [10]. For the same compound, the TGI is 26.8 µM in test [1]; 8.26 µM in test [2]; 60.5 µM in test [3]; greater than 100 µM in test [5]; 42.2 µM in [6]; 13.8 µM in test [7]. Also, the figures for the TGI in test [8], in [9] and in test [10] were greater than 100 µM, greater than 79.8 µM and greater than 100 µM, respectively.
On to `CC1(C)CC(O)CC(C)(C)N1O`, for which the TGI in test [1], in [2], in [3], in test [4], in test [5] and in [6] was greater than 100 µM in each case. Also, the TGI in test [7], in test [8], in [9] and in test [10] was greater than 100 µM each time. Moreover, the GI50 in test [7] is greater than 100 µM.
`Nc1ncn([C@H]2CC(O)[C@@H](CO)S2)c(=O)n1` (some centres undefined): the GI50 in test [1] is 1.71 µM; in test [2], 3.57 µM; in [3] it was 8.93 µM; in test [4], 1.08 µM; in test [5] it was 2.45 µM; in test [6], 8.27 µM. For the same compound, the GI50 in test [7] is 5.27 µM; in [8], 2.2 µM; in test [9], 2.44 µM; in test [10], 16.2 µM. Also, the TGI in test [1], in test [2], in test [3], in [4], in test [5] and in test [6] was greater than 100 µM in each case. Besides, the TGI in test [7], in test [8], in test [9] and in test [10] was greater than 100 µM in each case.
For the compound `CC1(C)N=C(N)N=C(N)N1c1ccc(CCCC(=O)Nc2ccc(S(=O)(=O)F)cc2)cc1`, the GI50 was 39.3 µM in test [1]; 45.7 µM in test [2]; 0.469 µM in [3]; 14.2 µM in test [4]; 4.13 µM in test [5]; 22.8 µM in [6]. Moreover, the GI50 in test [7] was 3.47 µM; in [8], 2.13 µM; in test [9], 14.5 µM; in [10] it was 36.5 µM. The TGI in test [1], in [2], in test [3], in [4], in test [5] and in test [6] was greater than 100 µM throughout. In addition, the TGI in test [7], in test [8], in [9] and in test [10] was greater than 100 µM in each case.
With `COc1cc2ncn(-c3cc(OCc4ccccc4C(F)(F)F)c(C(N)=O)s3)c2cc1OC`, the 50% growth inhibitory concentration (GI50) is 0.211 µM in test [1]; 0.27 µM in test [2]; 0.214 µM in [3]; 0.13 µM in test [4]; 0.0841 µM in test [5]; 1.64 µM in test [6]. Besides, the GI50 in [7] is 0.0361 µM; in test [8], 0.137 µM; in test [9], 0.276 µM; in test [10], 2.4 µM. Moreover, the TGI in test [1] was greater than 25 µM; in test [2], greater than 25 µM; in [3], greater than 25 µM; in [4], greater than 25 µM; in test [5] it was greater than 25 µM; in test [6] it was greater than 19.5 µM. The TGI is greater than 25 µM in test [7], greater than 25 µM in test [8], greater than 25 µM in test [9] and greater than 19.3 µM in [10].
Take `COc1cc2c(c(OC)c1OC)-c1cc(I)c(O)cc1[C@@H](NC(C)=O)CC2`: the GI50 in [1] was 0.118 µM; in test [2] it was 0.0859 µM; in [3], 0.0395 µM; in test [4] it was 0.0437 µM; in test [5] it was 0.0364 µM; in [6] it was 0.134 µM. The GI50 in test [7] is 0.0254 µM; in [8], 0.0324 µM; in [9], 0.0655 µM; in test [10], 0.0679 µM. In addition, the TGI is greater than 100 µM in [1]; greater than 100 µM in test [3]; greater than 100 µM in [4]; greater than 100 µM in test [5]; 2.95 µM in test [6]; 0.069 µM in test [7]. The figures for the TGI in test [8], in [9] and in [10] were greater than 100 µM, 3 µM and greater than 100 µM, respectively.
Take `O=[N+]([O-])c1ccccc1N=Nc1c(O)[nH]c2c(Cl)cccc12`: the TGI in test [1] is greater than 100 µM; in [2], 23.4 µM; in test [3], greater than 100 µM; in test [4] it was greater than 100 µM; in test [5] it was greater than 100 µM; in test [6], greater than 82.3 µM. Also, the TGI in test [7] is greater than 100 µM; in [8] it was greater than 100 µM; in [9], greater than 100 µM; in [10], greater than 79.3 µM.
On to `NNc1c(C(N)=O)c2c(N)ncnc2n1C1OC(CO)C(O)C1O` (centres undefined), for which the GI50 is 0.0292 µM in test [1]; 0.086 µM in test [2]; 0.0224 µM and 0.0464 µM in test [3]; 0.0232 µM and 0.0964 µM in [4]; less than 0.0146 µM in [5]; 0.0355 µM and 0.0407 µM in [6]. The GI50 in test [7] was 0.0665 µM and < 0.0118 µM; in test [8], 0.0199 µM; in [9] it was < 0.0176 µM and 0.0165 µM; in test [10], 0.187 µM. Also, the TGI was 1.5 µM and 3.04 µM in test [1]; 0.491 µM and 2.23 µM in test [2]; 0.22 µM and 0.304 µM in test [3]; 0.103 µM and 0.495 µM in test [4]; < 0.0483 µM and 0.12 µM in test [5]; 0.624 µM and 0.672 µM in test [6]. The TGI in test [7] was 0.785 µM and 0.125 µM; in test [8], 16.3 µM and > 100 µM; in test [9], 0.0462 µM and 0.0691 µM; in [10], 8.54 µM and 18.2 µM.
With `O=S(=O)(c1ccccc1)N1CCCC(c2ccccc2)CC1` (centres undefined), the TGI in [1] is greater than 100 µM; in test [2] it was greater than 100 µM; in test [3], greater than 100 µM; in [4] it was 69.1 µM; in test [5] it was greater than 100 µM; in [6], greater than 100 µM. Also, the TGI in test [7] is 29.9 µM; in test [8] it was greater than 100 µM; in [9], 61.3 µM; in test [10] it was greater than 100 µM.
On to `S=c1ssnc1-c1cc2ccccc2o1`, for which the GI50 in test [1] was 11.5 µM; in test [2], 13.3 µM; in test [3], 3.82 µM; in test [4], 3.39 µM; in test [5], 3.23 µM; in [6], 13.8 µM. Further, the GI50 in test [7] was 14 µM; in test [8], 22.5 µM; in [9] it was 16.4 µM; in [10], 16.7 µM. In addition, the TGI in test [1] was 25.5 µM; in test [2] it was 29.4 µM; in [3] it was 24.2 µM; in test [4] it was greater than 100 µM; in test [5], greater than 100 µM; in test [6], 27.7 µM. In addition, the TGI is greater than 100 µM in test [7], greater than 100 µM in test [8], 34.4 µM in [9] and 36.8 µM in test [10].
